Here are results for 2 compounds from ChEMBL document CHEMBL5532655, “Discovery of (R)-4-(8-methoxy-2-methyl-1-(1-phenylethy)-1H-imidazo[4,5-c]quinnolin-7-yl)-3,5-dimethylisoxazole as a potent and selective BET inhibitor for treatment of acute myeloid leukemia (AML) guided by FEP calculation” (Eur J Med Chem, 2024).

In assay [1] the target is T1, Bromodomain-containing protein 9 (Homo sapiens) (UniProt Q9H8M2).
T1 sequence (whole entry): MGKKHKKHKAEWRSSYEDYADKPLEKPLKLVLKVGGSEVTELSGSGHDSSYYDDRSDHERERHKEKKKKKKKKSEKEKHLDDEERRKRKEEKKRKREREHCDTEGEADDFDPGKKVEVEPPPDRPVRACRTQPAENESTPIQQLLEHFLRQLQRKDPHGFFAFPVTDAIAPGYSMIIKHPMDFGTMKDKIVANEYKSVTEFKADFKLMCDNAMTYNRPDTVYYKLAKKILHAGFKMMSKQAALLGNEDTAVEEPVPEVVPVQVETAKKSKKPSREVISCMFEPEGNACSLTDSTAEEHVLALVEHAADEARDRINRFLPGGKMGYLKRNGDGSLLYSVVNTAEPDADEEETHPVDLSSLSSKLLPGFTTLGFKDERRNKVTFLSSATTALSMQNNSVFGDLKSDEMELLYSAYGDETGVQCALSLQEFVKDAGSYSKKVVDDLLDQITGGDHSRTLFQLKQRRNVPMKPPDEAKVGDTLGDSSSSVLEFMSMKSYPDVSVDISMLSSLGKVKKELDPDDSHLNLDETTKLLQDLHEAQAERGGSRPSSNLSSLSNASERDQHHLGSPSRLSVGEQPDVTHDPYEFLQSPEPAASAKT
Kind of assay: Binding affinity to BRD9 (unknown origin) using biotinylated histone peptide H4 as substrate at 1 uM incubated for 2 hrs by AlphaScreen assay relative to control.

For a further assay, the target named is T2, Peregrin (Homo sapiens) (UniProt P55201).
T2 sequence (whole entry): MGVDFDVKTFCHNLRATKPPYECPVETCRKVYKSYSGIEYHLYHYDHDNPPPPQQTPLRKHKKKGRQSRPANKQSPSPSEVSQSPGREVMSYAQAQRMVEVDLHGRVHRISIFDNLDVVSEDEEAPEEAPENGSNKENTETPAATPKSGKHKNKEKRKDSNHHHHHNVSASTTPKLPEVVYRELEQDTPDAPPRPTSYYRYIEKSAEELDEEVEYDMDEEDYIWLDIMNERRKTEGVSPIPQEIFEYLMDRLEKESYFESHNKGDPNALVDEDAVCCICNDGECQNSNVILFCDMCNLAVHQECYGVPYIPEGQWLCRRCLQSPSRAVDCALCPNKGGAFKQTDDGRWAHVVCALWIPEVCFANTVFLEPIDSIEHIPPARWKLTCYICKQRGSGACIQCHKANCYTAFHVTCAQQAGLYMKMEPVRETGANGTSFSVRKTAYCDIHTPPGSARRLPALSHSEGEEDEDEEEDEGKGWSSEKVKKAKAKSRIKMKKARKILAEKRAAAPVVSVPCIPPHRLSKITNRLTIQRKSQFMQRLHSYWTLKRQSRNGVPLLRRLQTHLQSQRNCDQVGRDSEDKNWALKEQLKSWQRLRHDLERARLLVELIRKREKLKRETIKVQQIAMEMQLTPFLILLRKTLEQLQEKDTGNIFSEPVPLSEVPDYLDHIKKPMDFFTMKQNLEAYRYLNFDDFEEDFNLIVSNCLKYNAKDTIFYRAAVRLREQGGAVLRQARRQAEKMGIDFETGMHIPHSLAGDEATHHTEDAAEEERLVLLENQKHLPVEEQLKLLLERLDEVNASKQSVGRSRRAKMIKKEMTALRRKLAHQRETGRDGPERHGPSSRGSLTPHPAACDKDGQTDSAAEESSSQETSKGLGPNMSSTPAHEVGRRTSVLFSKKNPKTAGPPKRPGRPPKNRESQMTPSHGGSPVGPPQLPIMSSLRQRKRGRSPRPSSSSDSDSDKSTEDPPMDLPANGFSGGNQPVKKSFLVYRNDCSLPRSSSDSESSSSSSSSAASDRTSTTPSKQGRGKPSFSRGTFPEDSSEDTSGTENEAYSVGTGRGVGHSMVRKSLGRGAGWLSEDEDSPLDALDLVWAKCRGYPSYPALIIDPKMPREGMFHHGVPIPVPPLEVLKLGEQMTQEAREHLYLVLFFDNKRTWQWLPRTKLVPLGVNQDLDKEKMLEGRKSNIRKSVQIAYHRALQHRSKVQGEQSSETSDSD
The assay can be described thus: Binding affinity to BRPF1 (unknown origin) using biotinylated histone peptide H4 as substrate at 1 uM incubated for 2 hrs by AlphaScreen assay relative to control. A general note: In Alpha technology, singlet oxygen from a donor bead excites a nearby acceptor bead.

The target in assay [2] is SWI/SNF-related matrix-associated actin-dependent regulator of chromatin subfamily A member 4 (Homo sapiens) (UniProt P51532). The assay can be described thus: Binding affinity to SMARCA4 (unknown origin) using biotinylated histone peptide H4 as substrate at 1 uM incubated for 2 hrs by AlphaScreen assay relative to control.
SWI/SNF-related matrix-associated actin-dependent regulator of chromatin subfamily A member 4 (Homo sapiens), sequence (P51532 whole entry): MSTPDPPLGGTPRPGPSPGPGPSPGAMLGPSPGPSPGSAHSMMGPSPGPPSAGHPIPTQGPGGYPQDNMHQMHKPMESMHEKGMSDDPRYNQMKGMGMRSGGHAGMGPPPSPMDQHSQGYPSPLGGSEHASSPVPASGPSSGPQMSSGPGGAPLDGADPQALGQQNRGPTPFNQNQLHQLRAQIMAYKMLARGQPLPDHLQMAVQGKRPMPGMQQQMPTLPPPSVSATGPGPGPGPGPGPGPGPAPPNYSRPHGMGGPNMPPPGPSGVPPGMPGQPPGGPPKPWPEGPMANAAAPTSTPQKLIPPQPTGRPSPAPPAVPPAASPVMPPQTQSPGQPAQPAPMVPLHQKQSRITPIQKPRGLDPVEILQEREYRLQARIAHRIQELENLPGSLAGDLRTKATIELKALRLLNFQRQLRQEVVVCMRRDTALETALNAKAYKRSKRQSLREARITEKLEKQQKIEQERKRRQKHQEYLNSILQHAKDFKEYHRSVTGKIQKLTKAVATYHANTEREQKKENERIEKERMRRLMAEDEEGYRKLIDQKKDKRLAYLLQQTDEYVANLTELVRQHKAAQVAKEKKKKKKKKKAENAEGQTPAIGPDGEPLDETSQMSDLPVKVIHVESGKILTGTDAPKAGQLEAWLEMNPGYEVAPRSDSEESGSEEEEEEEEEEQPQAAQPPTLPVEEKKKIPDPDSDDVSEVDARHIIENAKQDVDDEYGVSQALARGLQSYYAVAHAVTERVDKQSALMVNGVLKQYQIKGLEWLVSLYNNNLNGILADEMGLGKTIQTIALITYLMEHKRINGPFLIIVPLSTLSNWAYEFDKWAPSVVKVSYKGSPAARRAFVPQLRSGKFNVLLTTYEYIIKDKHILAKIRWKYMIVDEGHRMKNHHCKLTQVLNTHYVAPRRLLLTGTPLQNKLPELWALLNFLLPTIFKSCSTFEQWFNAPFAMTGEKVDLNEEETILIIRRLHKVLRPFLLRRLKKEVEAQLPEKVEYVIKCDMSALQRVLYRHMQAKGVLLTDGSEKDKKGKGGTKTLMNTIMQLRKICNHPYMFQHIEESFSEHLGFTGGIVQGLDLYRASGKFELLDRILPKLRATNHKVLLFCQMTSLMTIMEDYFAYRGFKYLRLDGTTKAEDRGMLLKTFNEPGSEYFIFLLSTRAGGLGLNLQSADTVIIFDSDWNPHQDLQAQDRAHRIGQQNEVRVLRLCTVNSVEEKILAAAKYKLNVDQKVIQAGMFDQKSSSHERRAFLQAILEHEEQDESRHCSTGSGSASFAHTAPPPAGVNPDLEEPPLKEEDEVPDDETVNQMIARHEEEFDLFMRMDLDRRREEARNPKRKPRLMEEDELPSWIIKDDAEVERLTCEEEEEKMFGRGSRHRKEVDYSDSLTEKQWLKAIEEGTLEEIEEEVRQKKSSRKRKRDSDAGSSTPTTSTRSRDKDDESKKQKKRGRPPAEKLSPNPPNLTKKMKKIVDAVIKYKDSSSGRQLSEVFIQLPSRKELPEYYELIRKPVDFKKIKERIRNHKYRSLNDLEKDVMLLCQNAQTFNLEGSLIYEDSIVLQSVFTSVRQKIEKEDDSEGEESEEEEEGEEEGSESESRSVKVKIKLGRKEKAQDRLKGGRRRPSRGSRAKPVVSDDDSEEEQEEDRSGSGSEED
Assay [3] concerns the target Histone acetyltransferase KAT2A (Homo sapiens) (UniProt Q92830). Conditions: time 30.0 min.
Assay [4] concerns the target T3, Bromodomain-containing protein 7 (Homo sapiens) (UniProt Q9NPI1).
T3 sequence (whole entry): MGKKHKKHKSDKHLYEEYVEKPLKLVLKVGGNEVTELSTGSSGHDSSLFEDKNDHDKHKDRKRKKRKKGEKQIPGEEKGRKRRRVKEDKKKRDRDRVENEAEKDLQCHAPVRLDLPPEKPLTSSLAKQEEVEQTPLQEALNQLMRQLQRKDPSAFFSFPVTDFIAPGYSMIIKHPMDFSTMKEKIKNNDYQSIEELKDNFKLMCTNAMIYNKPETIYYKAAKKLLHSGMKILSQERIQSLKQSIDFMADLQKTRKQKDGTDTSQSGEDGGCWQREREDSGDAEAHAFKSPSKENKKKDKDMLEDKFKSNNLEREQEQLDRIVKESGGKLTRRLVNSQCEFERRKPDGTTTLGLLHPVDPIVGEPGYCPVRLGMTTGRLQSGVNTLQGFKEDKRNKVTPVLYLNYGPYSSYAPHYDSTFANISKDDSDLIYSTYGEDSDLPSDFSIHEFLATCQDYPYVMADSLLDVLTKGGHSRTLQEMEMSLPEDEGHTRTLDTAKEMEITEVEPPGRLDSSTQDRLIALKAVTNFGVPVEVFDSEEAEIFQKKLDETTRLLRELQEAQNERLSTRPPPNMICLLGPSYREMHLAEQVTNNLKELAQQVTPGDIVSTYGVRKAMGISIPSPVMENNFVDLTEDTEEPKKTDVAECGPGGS
The conditions noted are these: time 30.0 min.

For another assay, the species on record is Homo sapiens. The conditions noted are these: time 30.0 min.

Molecules are shown by their SMILES.

Histone acetyltransferase KAT2A (Homo sapiens), sequence (Q92830 2-837 limits assumed): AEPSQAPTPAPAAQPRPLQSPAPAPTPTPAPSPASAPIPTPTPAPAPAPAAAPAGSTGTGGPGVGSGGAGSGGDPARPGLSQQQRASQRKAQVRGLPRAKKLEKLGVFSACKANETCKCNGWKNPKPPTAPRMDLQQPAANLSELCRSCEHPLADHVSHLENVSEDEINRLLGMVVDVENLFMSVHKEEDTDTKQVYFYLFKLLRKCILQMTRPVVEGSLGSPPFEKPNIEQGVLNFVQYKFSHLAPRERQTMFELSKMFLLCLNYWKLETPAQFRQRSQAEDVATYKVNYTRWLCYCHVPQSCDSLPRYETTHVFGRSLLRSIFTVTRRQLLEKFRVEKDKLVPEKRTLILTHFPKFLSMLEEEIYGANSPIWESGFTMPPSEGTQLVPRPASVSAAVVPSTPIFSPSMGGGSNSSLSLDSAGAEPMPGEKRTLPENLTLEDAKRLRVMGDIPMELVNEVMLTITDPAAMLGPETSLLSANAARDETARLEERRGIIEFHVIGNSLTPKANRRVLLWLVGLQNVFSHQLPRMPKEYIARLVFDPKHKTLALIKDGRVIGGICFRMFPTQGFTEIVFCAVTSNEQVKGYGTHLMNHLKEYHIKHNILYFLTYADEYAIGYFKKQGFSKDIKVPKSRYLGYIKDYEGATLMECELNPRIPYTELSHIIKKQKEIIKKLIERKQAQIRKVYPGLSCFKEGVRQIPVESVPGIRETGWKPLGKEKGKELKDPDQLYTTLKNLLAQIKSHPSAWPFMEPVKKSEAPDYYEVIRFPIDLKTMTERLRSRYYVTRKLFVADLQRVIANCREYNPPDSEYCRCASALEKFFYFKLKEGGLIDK

One may read the ΔTm as the change in melting temperature against a reference sample. Consider `COc1cc2c(cc1-c1c(C)noc1C)ncc1nc(C)n([C@H](C)c3ccccc3)c12`, for which the Activity (in assay [1]; at Peregrin (Homo sapiens); in assay [2]) was under 30% each time. Moreover, the thermal shift (ΔTm) (in assay [3]; in assay [4]; in the assay filed under Homo sapiens) was 0 °C throughout.

On to `COc1cc2c(cc1-c1c(C)n[nH]c1C)ncc1nc(C)n([C@H](C)c3ccccc3)c12`, for which the Activity (in assay [1]; on Peregrin (Homo sapiens); in assay [2]) was under 30% throughout. Also, the shift in melting temperature (ΔTm) (in assay [3]; in assay [4]; in the assay filed under Homo sapiens) was 0 °C in each case.
